# According to ChEMBL document CHEMBL1153245, “A profile of the in vitro anti-tumor activity of imidazolium-based ionic liquids” (2010):
# Key:
# Format in all cases: functional
# RXF 393 [1] = assay: Anticancer activity against human RXF393 cells after 48 hrs by sulforhodamine B assay
# HT-29 = assay: Anticancer activity against human HT-29 cells after 48 hrs by sulforhodamine B assay
# PC-3 = assay: Anticancer activity against human PC3 cells assessed cell growth at 10 uM after 48 hrs by sulforhodamine B assay relative to control
# SW-620 = assay: Anticancer activity against human SW620 cells after 48 hrs by sulforhodamine B assay
# LOX IMVI [2] = assay: Anticancer activity against human LOXIMVI cells assessed cell growth at 10 uM after 48 hrs by sulforhodamine B assay relative to control
# CAKI-1 = assay: Anticancer activity against human Caki1 cells after 48 hrs by sulforhodamine B assay
# T47D = assay: Anticancer activity against human T47D cells after 48 hrs by sulforhodamine B assay
# OVCAR-3 = assay: Anticancer activity against human OVCAR-3 cells after 48 hrs by sulforhodamine B assay
# MDA-MB-435 = assay: Anticancer activity against human MDA-MB-435 cells after 48 hrs by sulforhodamine B assay
# K562 = assay: Anticancer activity against human K562 cells after 48 hrs by sulforhodamine B assay
# NCI-H460 = assay: Anticancer activity against human NCI-H460 cells assessed cell growth at 10 uM after 48 hrs by sulforhodamine B assay relative to control
# SR = assay: Anticancer activity against human SR cells after 48 hrs by sulforhodamine B assay
# TK-10 = assay: Anticancer activity against human TK10 cells assessed cell growth at 10 uM after 48 hrs by sulforhodamine B assay relative to control
# HCC 2998 = assay: Anticancer activity against human HCC2998 cells after 48 hrs by sulforhodamine B assay
# UO-31 = assay: Anticancer activity against human UO31 cells assessed cell growth at 10 uM after 48 hrs by sulforhodamine B assay relative to control
# MDA-MB-231 = assay: Anticancer activity against human MDA-MB-231 cells after 48 hrs by sulforhodamine B assay
# HCT-15 = assay: Anticancer activity against human HCT15 cells after 48 hrs by sulforhodamine B assay
# OVCAR-8 = assay: Anticancer activity against human OVCAR8 cells assessed cell growth at 10 uM after 48 hrs by sulforhodamine B assay relative to control
# NCI/ADR-RES = assay: Anticancer activity against human NCI/ADR-RES cells after 48 hrs by sulforhodamine B assay
# M14 = assay: Anticancer activity against human M14 cells after 48 hrs by sulforhodamine B assay
# MOLT-4 = assay: Anticancer activity against human MOLT4 cells after 48 hrs by sulforhodamine B assay
# COLO 205 = assay: Anticancer activity against human COLO205 cells after 48 hrs by sulforhodamine B assay
# MCF7 [3] = assay: Anticancer activity against human MCF7 cells after 48 hrs by sulforhodamine B assay
# SK-OV-3 = assay: Anticancer activity against human SKOV3 cells after 48 hrs by sulforhodamine B assay
# OVCAR-4 = assay: Anticancer activity against human OVCAR4 cells after 48 hrs by sulforhodamine B assay
# MDA-MB-468 = assay: Anticancer activity against human MDA-MB-468 cells assessed cell growth at 10 uM after 48 hrs by sulforhodamine B assay relative to control
# BT-549 = assay: Anticancer activity against human BT549 cells after 48 hrs by sulforhodamine B assay
# HOP-92 = assay: Anticancer activity against human HOP92 cells after 48 hrs by sulforhodamine B assay
# 786-0 = assay: Anticancer activity against human 786-0 cells after 48 hrs by sulforhodamine B assay
# LOX IMVI [4] = assay: Anticancer activity against human LOXIMVI cells after 48 hrs by sulforhodamine B assay
# UACC-257 = assay: Anticancer activity against human UACC257 cells after 48 hrs by sulforhodamine B assay
# SK-MEL-5 = assay: Anticancer activity against human SK-MEL-5 cells after 48 hrs by sulforhodamine B assay
# MCF7 [5] = assay: Anticancer activity against human MCF7 cells assessed cell growth at 10 uM after 48 hrs by sulforhodamine B assay relative to control
# HOP-62 = assay: Anticancer activity against human HOP62 cells assessed cell growth at 10 uM after 48 hrs by sulforhodamine B assay relative to control
# SN12C = assay: Anticancer activity against human SN12C cells after 48 hrs by sulforhodamine B assay
# [6] = Anticancer activity against human […] cells after 48 hrs by sulforhodamine B assay
# RXF 393 [7] = assay: Anticancer activity against human RXF393 cells assessed cell growth at 10 uM after 48 hrs by sulforhodamine B assay relative to control
# IGROV-1 = assay: Anticancer activity against human IGROV1 cells assessed cell growth at 10 uM after 48 hrs by sulforhodamine B assay relative to control
# NCI-H322M = assay: Anticancer activity against human NCI-H322M cells assessed cell growth at 10 uM after 48 hrs by sulforhodamine B assay relative to control
# A549 = assay: Anticancer activity against human A549 cells assessed cell growth at 10 uM after 48 hrs by sulforhodamine B assay relative to control
# SNB-19 = assay: Anticancer activity against human SNB19 cells assessed cell growth at 10 uM after 48 hrs by sulforhodamine B assay relative to control
# [8] = read-out: LC50 (the source's name)
smiles,measurement,setting,value
CCCCCCCCCCCC[n+]1ccn(C)c1.F[B-](F)(F)F,GI50,RXF 393 [1],6.52 µM
same,GI50,HT-29,2.19 µM
same,Activity,PC-3,74.38%
same,GI50,SW-620,7.25 µM
same,Activity,LOX IMVI [2],35.51%
same,GI50,CAKI-1,2.99 µM
same,GI50,T47D,4.31 µM
same,GI50,OVCAR-3,3.33 µM
same,GI50,MDA-MB-435,2.15 µM
same,CC50,MDA-MB-435; [8],77.5 µM
same,GI50,K562,0.363 µM
same,Activity,NCI-H460,23.03%
same,GI50,SR,1.06 µM
same,CC50,SR; [8],> 100 µM
same,Activity,TK-10,24.24%
same,GI50,HCC 2998,4.18 µM
same,Activity,UO-31,68.16%
same,GI50,MDA-MB-231,4.68 µM
same,CC50,MDA-MB-231; [8],64.2 µM
same,GI50,HCT-15,18.1 µM
same,Activity,OVCAR-8,13.12%
same,GI50,NCI/ADR-RES,39.7 µM
same,GI50,M14,4.15 µM
same,GI50,MOLT-4,2.58 µM
same,GI50,COLO 205,3.41 µM
same,GI50,MCF7 [3],1.95 µM
same,GI50,SK-OV-3,5.97 µM
same,GI50,OVCAR-4,2.59 µM
same,Activity,MDA-MB-468,-43.37%
same,GI50,BT-549,2.38 µM
same,CC50,BT-549; [8],51.9 µM
same,GI50,HOP-92,7.84 µM
same,GI50,786-0,5.77 µM
same,GI50,LOX IMVI [4],1.36 µM
same,CC50,LOX IMVI [4]; [8],34.9 µM
same,GI50,UACC-257,3.06 µM
same,GI50,SK-MEL-5,1.66 µM
same,CC50,SK-MEL-5; [8],54.5 µM
same,Activity,MCF7 [5],-1.79%
same,Activity,HOP-62,28.7%
same,GI50,SN12C,3.35 µM
same,GI50,[6],0.312 µM
same,CC50,[6]; [8],9.48 µM
same,Activity,RXF 393 [7],22.19%
same,Activity,IGROV-1,1.02%
same,Activity,NCI-H322M,67.4%
same,Activity,A549,37.89%
same,Activity,SNB-19,39.2%
